This is an account of results in US20110039860A1, “SOLUBLE EPOXIDE HYDROLASE INHIBITORS, COMPOSITIONS CONTAINING SUCH COMPOUNDS AND METHODS OF TREATMENT” (priority 2008, published 2011).

In this assay the target is T1, human sEH enzyme (Homo sapiens, UniProt P34913).
T1 construct: His-tag (pET100 vector) (N, cleaved yes); made in house; host or cells: E. coli
T1 sequence (P34913 1-555): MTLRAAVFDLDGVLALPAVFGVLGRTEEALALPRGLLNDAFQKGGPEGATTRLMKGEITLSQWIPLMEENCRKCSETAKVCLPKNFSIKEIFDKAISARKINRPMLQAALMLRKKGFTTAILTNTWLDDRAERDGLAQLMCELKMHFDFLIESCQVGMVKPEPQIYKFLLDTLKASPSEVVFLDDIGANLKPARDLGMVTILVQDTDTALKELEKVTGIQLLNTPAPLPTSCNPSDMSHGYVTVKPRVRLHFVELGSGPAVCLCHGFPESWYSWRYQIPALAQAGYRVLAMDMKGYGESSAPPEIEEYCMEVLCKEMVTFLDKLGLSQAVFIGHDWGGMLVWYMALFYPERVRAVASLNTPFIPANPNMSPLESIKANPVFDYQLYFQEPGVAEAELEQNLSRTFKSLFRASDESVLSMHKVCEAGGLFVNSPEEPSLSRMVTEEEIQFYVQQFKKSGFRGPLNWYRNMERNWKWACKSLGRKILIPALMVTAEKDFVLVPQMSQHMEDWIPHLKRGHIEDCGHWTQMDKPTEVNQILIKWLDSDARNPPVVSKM
As to the kind of experiment: sEH human enzyme assay (fluorescence based enzyme in vitro assay). The format is biochemical. Conditions: recombinant human sEH about 1 nM, fluorescence substrate S7 10 uM, 25° C.; read-out: IC50 [nM] for human sEH enzyme inhibition. An excerpt: Preparation of Recombinant sEH Human Enzyme
The DNA for expressing sEH was designed based on a […] sEH cDNA, modified to optimize for expression both in E. coli and insect cells. The designed DNA fragment encodes a protein sequence that is identical to full length human sEH, and the DNA was synthesized in vitro. The DNA was then subcloned into the pET100 vector that will generate a fusion protein with an N-terminal His-tag. The recombinant protein was expressed in E. coli. The sEH enzyme was affinity purified by a Ni^++ column. His-tag was removed by Enter Kinase (EK) digestion. The purified enzyme aliquots were frozen and held at −80° C. for later use. Fluorescence Based Enzyme in vitro Assay For each assay (100 ul), an aliquot of enzymes (about 1 nM final concentration) was incubated with a fluorescence substrate, S7 (10 uM final concentration), in sEH assay buffer (25 mM HEPES, […], 0.1 mg/ml BSA) in a 96-well plate. The kinetic reaction reading (Ex330/Em465) was conducted using a plate reader, Spectra max (Molecular Devices) at 25° C.

`Fc1cccc(C(F)(F)F)c1-c1ccc(NCC2CCCCC2)nc1` [Compound I-1, N-(cyclohexylmethyl)-5-[2-fluoro-6-(trifluoromethyl)phenyl]pyridin-2-amine]: the IC50 turned out to be 1 nM.
For `O=C(O)[C@H]1CC[C@H](CCNc2ccc(-c3c(F)cccc3C(F)(F)F)cn2)CC1` [Compound I-2], the IC50 came to 19 nM.
Next, `O=C(c1cccnc1)N1CCC(CNc2ccc(-c3ccccc3C(F)(F)F)cn2)CC1` [Compound I-4]: 9 nM; `Fc1cccc(Cl)c1CCNc1ccc(-c2c(F)cccc2C(F)(F)F)cn1` [Compound I-5]: 2 nM.
For `O=C(c1ccccc1C(F)(F)F)N1CCC(CNc2ccc(-c3ccccc3C(F)(F)F)cn2)CC1` [Compound I-6], the concentration for half-maximal inhibition (IC50) came out at 3 nM.
As for `FC(F)(F)c1cccnc1-c1ccc(NCC2CCCCC2)nc1` [Compound I-7], the IC50 amounted to 32 nM.
To `FC(F)(F)c1ccccc1-c1ccc(NCc2ccccc2)nc1` [Compound I-8] belongs 25 nM; to `FC(F)(F)c1ccccc1-c1ccc(NCCC(c2ccccc2)c2ccccc2)nc1` [Compound I-9], 832 nM; to `FC(F)(F)c1ccccc1-c1ccc(NCc2cccc3ccccc23)nc1` [Compound I-10], 31 nM.
With `Clc1ccccc1-c1ccc(NCC2CCCCC2)nc1` [Compound I-11], the IC50 is 32 nM.
Turning to `FC(F)(F)Oc1cccc(CNc2ccc(-c3ccccc3C(F)(F)F)cn2)c1` [Compound I-12], the half-maximal inhibitory concentration (IC50) worked out at 52 nM.
With `O=S(=O)(c1ccccc1C(F)(F)F)N1CCC(CNc2ccc(-c3ccccc3C(F)(F)F)cn2)CC1` [Compound I-13], the half-inhibitory concentration (IC50) amounted to 18 nM.
With `O=C(N[C@H]1CC[C@H](CNc2ccc(-c3ccccc3C(F)(F)F)cn2)CC1)c1ccccc1C(F)(F)F` [Compound I-14], the IC50 was determined as 7 nM.
`CC(C)(C)OC(=O)N1CCC(CNc2ccc(-c3cnccc3C(F)(F)F)cn2)CC1` [Compound I-15]: the half-maximal inhibitory concentration (IC50) was 8 nM.
`FC(F)(F)c1cc(-c2nnn[nH]2)ccc1-c1ccc(NCC2CCCCC2)nc1` [Compound I-16]: the 50% inhibitory concentration (IC50) was determined as 53 nM.
With `FC(F)(F)c1ccccc1-c1ccc(NCC2CCCCC2)nn1` [Compound I-17], the IC50 came out at 8 nM.
For the molecule `FC(F)(F)c1ccccc1-c1cnc(NCC2CCCCC2)cn1` [Compound I-18], the half-maximal inhibitory concentration (IC50) was found to be 651 nM.
For the molecule `FC(F)(F)c1ccccc1-c1ccc(NCc2cccnc2)nc1` [Compound I-19], the IC50 is 92 nM.
In the case of `Fc1cccc(C(F)(F)F)c1-c1ccc(NCCc2c[nH]cn2)nc1` [Compound I-20], the IC50 worked out at 67 nM.
Regarding `FC(F)(F)c1ccccc1-c1ccc(NCCc2c[nH]cn2)nc1` [Compound I-21], the IC50 was determined as 100 nM.
With `O=C(O)C12CCC(CNc3ccc(-c4c(F)cccc4C(F)(F)F)cn3)(CC1)C2` [Compound I-22], the IC50 is 130 nM.
As to `FC(F)(F)c1ccccc1-c1ccc(NCCN2CCN(c3cccc(Cl)c3)CC2)nc1` [Compound I-23], the IC50 was 7 nM.
For the molecule `FC(F)(F)c1ccccc1-c1ccc(NC2CCOCC2)nc1` [Compound I-24], the IC50 amounted to 200 nM.
In the case of `FC(F)(F)c1ccnc(N2CCN(CCNc3ccc(-c4ccccc4C(F)(F)F)cn3)CC2)n1` [Compound I-25], the IC50 turned out to be 26 nM.
To `FC(F)(F)c1ccccc1-c1ccc(NCC2CC2)nc1` [Compound I-26] belongs 53 nM.
For the molecule `O=C(O)C1CCN(C(=O)c2ccc(-c3ccc(NCCc4c(F)cccc4Cl)nc3)c(C(F)(F)F)c2)CC1` [II-1, 1-[4-(6-{[2-(2-chloro-6-fluorophenyl)ethyl]amino}pyridin-3-yl)-3-(trifluoromethyl)benzoyl]piperidine-4-carboxylic acid], the 50% inhibitory concentration (IC50) was found to be 200 nM.
Consider `O=C(O)CCCOc1ccc(-c2ccc(NCC3CCCCC3)nc2)c(C(F)(F)F)c1` [II-2], for which the IC50 amounted to 66 nM.
Next, `O=C(O)c1cccc(-c2ccc(-c3ccc(NCC4CCCCC4)nc3)c(C(F)(F)F)c2)c1` [II-3]: 5 nM; `O=C(NCC1CCCCC1)c1ccc(-c2ccc(NCC3CCCCC3)nc2)c(C(F)(F)F)c1` [II-4]: 4 nM; `NC(=O)c1ccc(-c2ccc(NCC3CCCCC3)nc2)c(C(F)(F)F)c1` [II-5]: 4 nM.
To `FC(F)(F)c1cc(-c2cccnc2)nn1-c1ccc(NCC2CCCCC2)nc1` [III-1, N-(cyclohexylmethyl)-5-[3-pyridin-3-yl-5-(trifluoromethyl)-1H-pyrazol-1-yl]pyridin-2-amine] belongs 3 nM.
